Reference: patent US20240409536A1, “COMPOUNDS AND METHODS FOR MODULATING SPLICING” (REMIX THERAPEUTICS INC., priority 2021, published 2024)
pIC50: −log10 of the molar value. Counter-ions that a name gives are not always drawn.

Assays:
K562 cells = experiment: Cell Titer Glo 2.0 cell viability assay in K562 cells; details: 72 hours
Procedure: Compounds described herein were screened for toxicity in K562 (human chronic myelogenous leukemia) and SH-SY5Y (human neuroblastoma) cells using a Cell Titer Glo 2.0 assay.
Cells were plated at 500 cells/well (K562 cells) in 45 μL of IMDM supplemented with 10% FBS in a 384-well opaque plate. Wells containing only medium were used as a blank control. Test compounds (e.g., compounds of Formula (I), (II), or (III)) were first serially diluted in DMSO then diluted 1:100 with IMDM+10% FBS. The final concentration of DMSO was 0.1% in each well. The cells were incubated for 72 hours at 37° C. and 5% CO2 before assaying with Cell Titer Glo 2.0 reagent.

Target C = experiment: HiBiT protein abundance assay, Target C (K562 HiBiT knock-in cells); type: cell-based, human; details: 24 hours
Procedure: (§1) • Promega Nano-Glo HiBiT Lytic Detection System (cat #N3030) • Corning 384-well TC-treated microplates (cat #3570) • Synthego Engineered Cells Knock-In Clones
(§2) Cells were maintained in IMDM with 10% FBS. Before the assay, cells were diluted with […] growth media (IMDM+1% FBS media) and were seeded in a 384-well plate at a density of 10000 cells/well (for each cell line listed in Table 6). Each compound was prepared as a 10-point 3-fold serial dilution in DMSO with the top dose at a final concentration of 10 μM in the well. Unmodified K562 cells were added at the previously specified density with DMSO to serve as an assay baseline and positive control (PC) and DMSO only with the respective modified cell lines was added to the negative control (NC) columns. Final DMSO concentration was kept at or below 0.25%. Treated cell plates were placed in an incubator at 37° C. with 5% CO2 for 24 hours. After 24 hours, 25 μL of Complete HiBit Lytic reagent was added to each well at room temperature (e.g. one plate requiring 10 mL Lytic Buffer, 100 μL LgBiT Protein, 200 μL Lytic Substrate), shaken for 5 minutes at 600 RPM, then left to sit for 10 minutes for signal to stabilize before reading on a Spark Cyto plate reader (Tecan) with a 500 ms measurement time.
(§3) To determine compound effects on protein abundance of each target in Table 6, the percent response for each respective cell line was calculated at each compound concentration as follows:
(§4) For the normalized response at each concentration, a four-parameter logistical regression was fit to the data and the response was interpolated at the 50% value to determine a concentration for protein abundance at 50% (IC50) the untreated control.

HiBiT-tagged MYB protein = experiment: HiBiT protein abundance assay, MYB (K562 HiBiT knock-in cells); type: cell-based, human; details: 24 hours
Procedure: (§5) Compounds described herein were used to screen for effects on quantitative protein abundance using a HiBit assay system (Promega). Quantitative protein abundance was determined by measuring the protein levels of HiBit-tagged protein targets expressed in cell culture via luminescence using the Nano-Glo HiBiT Lytic Detection System, which uses a split complementation assay format to reconstitute NanoBiT enzyme to generate a luminescent signal. A protein abundance assay was developed such that endogenous protein targets could be modified with the HiBiT peptide tag and their abundance could be assessed after compound treatment. Briefly, K562 cell lines containing a HiBiT-modification were treated with various compounds described herein (e.g., compounds of Formulas (I), (II), or (III)). After treatment for 24 hours, the protein abundance of a specific target was determined by measuring luminescence.
as §1, §2, §3, §4

HiBiT-tagged HTT protein = experiment: HiBiT protein abundance assay, HTT (K562 HiBiT knock-in cells); type: cell-based, human; details: 24 hours
Procedure: as §5, §1, §2, §3, §4

HTT mRNA = experiment: Splicing RT-qPCR assay, HTT canonical (CJ) and alternative (AJ) junction mRNA; type: cell-based; details: Homo sapiens, A673 or K562 cells, 24 hours
Method in brief: (§6)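 A673 or K562 cells were treated 24 h at 37 °C with compounds in an 11-point 3-fold dilution series (top final 10 uM, DMSO ≤0.25%). Lysates were analysed by one-step RT-qPCR for canonical (CJ) and alternative-exon (AJ) junction isoforms, normalized to GAPDH, GUSB or PPIA.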

MYB mRNA = experiment: Splicing RT-qPCR assay, MYB canonical (CJ) and alternative (AJ) junction mRNA; type: cell-based; details: Homo sapiens, A673 or K562 cells, 24 hours
Method in brief: as §6

[1] = decrease in canonical junction mRNA
[2] = increase in alternative junction mRNA

Row | SMILES | Viability (K562 cells) | pIC50 (Target C) | pIC50 (HiBiT-tagged MYB protein) | pIC50 (HiBiT-tagged HTT protein) | pIC50 (HTT mRNA; [1]) | AC50 (HTT mRNA; [2]) | pIC50 (MYB mRNA; [1]) | AC50 (MYB mRNA; [2])
1 | CCNC1CCN(c2ccc(C(=O)Nc3cc(F)c4nc(C)cn4c3)c3nnccc23)CC1 [Compound 139, 5-[4-(ethylamino)piperidin-1-yl]-N-{8-fluoro-2-methylimidazo[1,2-a]pyridin-6-yl}cinnoline-8-carboxamide] | A (A represents <100 nM) | 5.00 to 6.00 | > 7.00 | 6.00 to 7.00 |  |  |  | 
2 | Cc1cn2cc(NC(=O)c3ccc(N4CCNC(C)C4)c4nccnc34)cc(F)c2n1 (centres unmarked) [Compound 157] | A (A represents <100 nM) | 5.00 to 6.00 | > 7.00 | 5.00 to 6.00 |  |  |  | 
3 | Cc1cn2cc(NC(=O)c3ccc(N4CCC(N(C)C)CC4)c4nccnc34)cc(F)c2n1 [Compound 158, 8-(4-(dimethylamino)piperidin-1-yl)-N-(8-fluoro-2-methylimidazo[1,2-a]pyridin-6-yl)quinoxaline-5-carboxamide] | B (B represents 100-1000 nM) | 5.00 to 6.00 | 6.00 to 7.00 | 6.00 to 7.00 |  |  |  | 
4 | Cc1cn2cc(NC(=O)c3ccc(N4CCC5(CCN5)CC4)c4ccnnc34)cc(F)c2n1 [Compound 171, 5-{1,7-diazaspiro[3.5]nonan-7-yl}-N-{8-fluoro-2-methylimidazo[1,2-a]pyridin-6-yl}cinnoline-8-carboxamide trifluoroacetate] | B (B represents 100-1000 nM) | 5.00 to 6.00 | > 7.00 | 6.00 to 7.00 |  |  |  | 
5 | Cc1cn2cc(NC(=O)c3ccc(N4CCN[C@H](C)C4)c4nccnc34)cc(F)c2n1 [Compound 188, N-{8-fluoro-2-methylimidazo[1,2-a]pyridin-6-yl}-8-(3-methylpiperazin-1-yl)quinoxaline-5-carboxamide] | B (B represents 100-1000 nM) | 5.00 to 6.00 | > 7.00 | 5.00 to 6.00 |  |  |  | 
6 | Cc1ccc2c(N3CCC4(CCN4)CC3)ccc(C(=O)Nc3cc(F)c4nc(C)cn4c3)c2n1 [Compound 195, 5-{1,7-diazaspiro[3.5]nonan-7-yl}-N-{8-fluoro-2-methylimidazo[1,2-a]pyridin-6-yl}-2-methylquinoline-8-carboxamide] | A (A represents <100 nM) | 6.00 to 7.00 | > 7.00 | 6.00 to 7.00 |  |  |  | 
7 | Cc1cnc2c(C(=O)Nc3cc(F)c4nc(C)cn4c3)ccc(N3CCNCC3)c2n1 [Compound 198] | B (B represents 100-1000 nM) | 6.00 to 7.00 | 6.00 to 7.00 | 6.00 to 7.00 |  |  |  | 
8 | CN[C@H]1CCN(c2ccc(C(=O)Nc3cc(F)c4nc(C)cn4c3)c3nc(OC)cnc23)C1 [Compound 203, (S)—N-{8-fluoro-2-methylimidazo[1,2-a]pyridin-6-yl}-3-methoxy-8-[3-(methylamino)pyrrolidin-1-yl]quinoxaline-5-carboxamide; trifluoroacetic acid] | C (C represents 1000-9999 nM) | 5.00 to 6.00 | 5.00 to 6.00 | 5.00 to 6.00 |  |  |  | 
9 | COc1cnc2c(C(=O)Nc3cc(F)c4nc(C)cn4c3)ccc(N3CCC(N(C)C)CC3)c2n1 [Compound 224, 8-[4-(dimethylamino)piperidin-1-yl]-N-{8-fluoro-2-methylimidazo[1,2-a]pyridin-6-yl}-2-methoxyquinoxaline-5-carboxamide] | B (B represents 100-1000 nM) | < 5.00 | > 7.00 | < 5.00 |  |  |  | 
10 | Cc1cn2cc(NC(=O)c3ccc(N4CCN[C@@H](CO)C4)c4nccnc34)cc(F)c2n1 [Compound 361] | B (B represents 100-1000 nM) | 5.00 to 6.00 | 6.00 to 7.00 | 5.00 to 6.00 | 5.00 to 6.00 | 1000 to 10000 nM | 6.00 to 7.00 | < 100 nM
